Measurements taken from patent US12252488B2 (Nimbus Saturn, Inc., priority 2021, dated 2025).
pIC50: −log10 of the molar value.

Each compound was assayed against T1, HPK1 (Homo sapiens, UniProt Q92918) (assay: HPK1 biochemical enzyme assay (microfluidic mobility shift assay)). Conditions: 1000 uM (1 mM) ATP; Caliper mobility shift; 1.5 nM HPK1; 30 min preincubation; read-out: HPK1 1000UMATP caliper IC50.
T1 construct: purchased Invitrogen
Procedure, shortened: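 Microfluidic mobility-shift readout with 1.5 nM HPK1 in pH 7.4 buffer; compounds (ten-point curves, top 3 μM final) preincubated 30 min with enzyme/substrate. Reaction started with 1 mM ATP and 1 μM substrate plus 5 mM MgCl2, run 60 min at RT. IC50 values binned into activity classes.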

T1 sequence (Q92918 whole entry): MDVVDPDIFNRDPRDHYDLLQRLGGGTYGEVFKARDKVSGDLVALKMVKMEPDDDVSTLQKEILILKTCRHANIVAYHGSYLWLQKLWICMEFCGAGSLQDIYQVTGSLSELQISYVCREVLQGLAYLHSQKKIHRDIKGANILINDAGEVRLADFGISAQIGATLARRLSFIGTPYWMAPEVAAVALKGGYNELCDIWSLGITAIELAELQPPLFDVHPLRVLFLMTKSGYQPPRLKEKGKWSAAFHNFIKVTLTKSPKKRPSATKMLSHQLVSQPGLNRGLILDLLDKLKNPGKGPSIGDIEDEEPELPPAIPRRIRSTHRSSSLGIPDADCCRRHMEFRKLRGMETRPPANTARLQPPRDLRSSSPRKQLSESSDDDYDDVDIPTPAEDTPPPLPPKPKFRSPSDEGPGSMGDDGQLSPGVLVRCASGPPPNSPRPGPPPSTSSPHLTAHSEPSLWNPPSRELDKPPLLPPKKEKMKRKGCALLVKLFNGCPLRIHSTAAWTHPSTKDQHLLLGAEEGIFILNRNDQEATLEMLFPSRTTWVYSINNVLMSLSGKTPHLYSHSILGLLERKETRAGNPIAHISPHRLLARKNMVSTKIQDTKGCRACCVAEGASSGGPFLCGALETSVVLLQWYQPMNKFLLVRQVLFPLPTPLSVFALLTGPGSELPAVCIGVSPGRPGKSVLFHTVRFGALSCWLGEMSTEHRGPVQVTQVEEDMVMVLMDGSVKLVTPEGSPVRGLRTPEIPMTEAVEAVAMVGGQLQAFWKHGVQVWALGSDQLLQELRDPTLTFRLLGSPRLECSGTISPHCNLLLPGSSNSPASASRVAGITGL

`O=C(c1ccc(-c2cc(Nc3ccc(N4CCC(O)CC4)cn3)c3c(=O)[nH]ccc3n2)c(F)c1)N1CCC1` [I-126, 2-[4-(azetidine-1-carbonyl)-2-fluoro-phenyl]-4-[[5-(4-hydroxy-1-piperidyl)-2-pyridyl]amino]-6H-1,6-naphthyridin-5-one] and `O=C(c1ccc(-c2cc(Nc3ccc(N4CCC(O)CC4)cn3)c3c(=O)[nH]ccc3n2)c(F)c1)N1CCCCC1` [I-71, 2-[2-fluoro-4-(piperidine-1-carbonyl)phenyl]-4-[[5-(4-hydroxy-1-piperidyl)-2-pyridyl]amino]-6H-1,6-naphthyridin 5-one] fall in the same range of pIC50: 6.00 to 7.00 for the first, 6.00 to 7.00 for the second.

`COc1cc(-c2cc(Nc3ccc(N4CCC(O)CC4)cn3)c3c(=O)[nH]ccc3n2)c(F)cc1CN(C)C` [I-215, 2-(4-((Dimethylamino)methyl)-2-fluoro-5-methoxyphenyl)-4-((5-(4-hydroxypiperidin-1-yl)pyridin-2-yl)amino)-1,6-naphthyridin-5(6H)-one] and `CNC(=O)c1ccc(F)c(-c2cc(Nc3ccc(N4CCC(O)CC4)cn3)c3c(=O)[nH]ccc3n2)c1` [I-85, 4-fluoro-3-[4-[[5-(4-hydroxy-1-piperidyl)-2-pyridyl]amino]-5-oxo-6H-1,6-naphthyridin-2-yl]-N-methyl-benzamide] fall in the same range of pIC50: 6.00 to 7.00 for the first, 6.00 to 7.00 for the second.

`O=C(c1ccc(F)c(-c2cc(Nc3ccc(N4CCC(O)CC4)cn3)c3c(=O)[nH]ccc3n2)c1)N1CCCCC1` [I-94, 2-[2-fluoro-5-(piperidine-1-carbonyl)phenyl]-4-[[5-(4-hydroxy-1-piperidyl)-2-pyridyl]amino]-6H-1,6-naphthyridin-5-one] and `Cc1c(C(=O)N2CCCCC2)ccc(-c2cc(Nc3ccc(N4CCC(O)CC4)cn3)c3c(=O)[nH]ccc3n2)c1F` [I-113, 2-[2-fluoro-3-methyl-4-(piperidine-1-carbonyl)phenyl]-4-[[5-(4-hydroxy-1-piperidyl)-2-pyridyl]amino]-6H-1,6-naphthyridin-5-one] cannot be ordered by pIC50: at least 7.00 for the first, 6.00 to 7.00 for the second.

`O=c1[nH]ccc2nc(-c3ccc(OCc4ccncc4)cc3F)cc(Nc3ccc(N4CCC(O)CC4)cn3)c12` [I-61, 2-[2-fluoro-4-(4-pyridyl-methoxy)phenyl]-4-[[5-(4-hydroxy-1-piperidyl)-2-pyridyl]amino]-6H-1,6-naphthyridin-5-one] and `CNC(=O)c1ccc(-c2cc(Nc3ccc(N4CCC(O)CC4)cn3)c3c(=O)[nH]ccc3n2)c(F)c1` [I-70, 3-fluoro-4-[4-[[5-(4-hydroxy-1-piperidyl)-2-pyridyl]amino]-5-oxo-6H-1,6-naphthyridin-2-yl]-N-methyl-benzamide] fall in the same range of pIC50: 6.00 to 7.00 for the first, 6.00 to 7.00 for the second.

`O=c1[nH]ccc2nc(-c3c(F)ccc4c3CCNC4)cc(Nc3cc(C4CCOC4)n[nH]3)c12` (centres unmarked) [I-265, 2-(6-fluoro-1,2,3,4-tetrahydro-isoquinolin-5-yl)-4-[(3-THF-3-yl-1H-pyrazol-5-yl)amino]-6H-1,6-naphthyridin-5-one] and `Cc1cc(-c2cc(Nc3ccc(N4CCNCC4)cn3)c3c(=O)[nH]ccc3n2)c(F)cc1NC(=O)C1CCCCC1` [I-197, N-[5-fluoro-2-methyl-4-[5-oxo-4-[(5-piperazin-1-yl-2-pyridyl)amino]-6H-1,6-naphthyridin-2-yl]phenyl] cyclohexane carboxamide] cannot be ordered by pIC50: at least 7.00 for the first, 6.00 to 7.00 for the second.

First: COc1cc(-c2cc(Nc3ccc(N4CCOCC4)cn3)c3c(=O)[nH]ccc3n2)c(F)cc1C(=O)N1CCCCC1 [I-164, 2-[2-fluoro-5-methoxy-4-(piperidine-1-carbonyl)phenyl]-4-[(5-morpholino-2-pyridyl)amino]-6H-1,6-naphthyridin-5-one]
Second: O=C(Nc1ccc(-c2cc(Nc3ccc(N4CCC(F)(F)CC4)cn3)c3c(=O)[nH]ccc3n2)c(F)c1)C1CCCCC1 [I-172, N-[4-[4-[[5-(4,4-difluoro-1-piperidyl)-2-pyridyl]amino]-5-oxo-6H-1,6-naphthyridin-2-yl]-3-fluoro-phenyl] cyclohexane-carboxamide]
The pIC50 of the first is higher: at least 7.00 for the first, under 6.00 for the second.

`CC(C)Cc1cc(Nc2ccc(N3CCC(O)CC3)cn2)c2c(=O)[nH]ccc2n1` [I-28, 4-[[5-(4-hydroxy-1-piperidyl)-2-pyridyl]amino]-2-isobutyl-6H-1,6-naphthyridin-5-one] and `CC(O)c1cc(Nc2ccc(N3CCC(O)CC3)cn2)c2c(=O)[nH]ccc2n1` (centres unmarked) [I-37, 2-(1-hydroxyethyl)-4-[[5-(4-hydroxy-1-piperidyl)-2-pyridyl]amino]-6H-1,6-naphthyridin-5-one] fall in the same range of pIC50: 6.00 to 7.00 for the first, 6.00 to 7.00 for the second.

`CC(C)c1cccc(-c2cc(Nc3ccc(N4CCC(O)CC4)cn3)c3c(=O)[nH]ccc3n2)c1` [I-99, 4-[[5-(4-hydroxy-1-piperidyl)-2-pyridyl]amino]-2-(3-isopropyl-phenyl)-6H-1,6-naphthyridin-5-one] and `CCC1(C(=O)Nc2ccc(-c3cc(Nc4ccc(N5CCC(O)CC5)cn4)c4c(=O)[nH]ccc4n3)c(F)c2)CC1` [I-223, 1-ethyl-N-[3-fluoro-4-[4-[[5-(4-hydroxy-1-piperidyl)-2-pyridyl]amino]-5-oxo-6H-1,6-naphthyridin-2-yl]phenyl] cyclopropane-carboxamide] cannot be ordered by pIC50: 6.00 to 7.00 for the first, at least 7.00 for the second.

`CC(C)(O)c1c[nH]c(=O)c2c(Nc3ccc(N4CCC(O)CC4)cn3)cc(-c3c(F)cccc3F)nc12` [I-16, 2-(2,6-difluorophenyl)-8-(1-hydroxy-1-methyl-ethyl)-4-[[5-(4-hydroxy-1-piperidyl)-2-pyridyl]amino]-6H-1,6-naphthyridin-5-one] and `O=c1[nH]ccc2cc(-c3c(F)cccc3F)nc(Nc3ccc(N4CCC(O)CC4)cn3)c12` [I-8, 6-(2,6-difluoro-phenyl)-8-[[5-(4-hydroxy-1-piperidyl)-2-pyridyl]amino]-2H-2,7-naphthyridin-1-one] fall in the same range of pIC50: 6.00 to 7.00 for the first, 6.00 to 7.00 for the second.

`O=C(c1ccc(-c2cc(Nc3ccc(N4CCNCC4)cn3)c3c(=O)[nH]ccc3n2)c(F)c1)N1CC2CCC1CC2` [I-264, 2-[4-(3-azabicyclo [2.2.2]octane-3-carbonyl)-2-fluoro-phenyl]-4-[(5-piperazin-1-yl-2-pyridyl)amino]-6H-1,6-naphthyridin-5-one] and `CC1(Cc2cc(Nc3ccc(N4CCC(O)CC4)cn3)c3c(=O)[nH]ccc3n2)COC1` [I-54, 4-[[5-(4-hydroxy-1-piperidyl)-2-pyridyl]amino]-2-[(3-methyl-oxetan-3-yl)methyl]-6H-1,6-naphthyridin-5-one] cannot be ordered by pIC50: at least 7.00 for the first, 6.00 to 7.00 for the second.
